Data on four compounds can be found in publication PMC6273913, “New α-Methylene-γ-Butyrolactone Derivatives as Potential Fungicidal Agents: Design, Synthesis and Antifungal Activities” (Molecules, 2016).

Molecules are shown by their SMILES. Where two headings read alike, the source gives them in different places.

One data set has as its system C. lagenarium. Kind of data set: Spore germination assay, fungicidal activity against C. lagenarium. Particulars: Colletotrichum orbiculare. Format: cell-based, Colletotrichum lagenarium.
The test system of the next data set is HepG2 cell line. Kind of data set: Cytotoxic activity against human tumor cells line (HepG2). In kind it is cell-based.
The next data set relates to B. cinerea. Kind of data set: Spore germination assay, fungicidal activity against B. cinerea. Format: cell-based, Botrytis cinerea. Particulars: Botrytis cinerea, in vitro, n = 3.
Where [1] appears, read: Table 1, from IC50 in μM, read-out: pIC50, C. lagenarium (converted).
Where [2] appears, read: Table 2, fungicidal activity against C. lagenarium used for QSAR, read-out: pIC50 (converted).
[3] abbreviates: Table 4, experimental, C. lagenarium, read-out: Exp. pIC50 (converted).
Where [4] appears, read: Table 6, read-out: IC50 (μM) (against C. lagenarium).
[5] abbreviates: in vitro, spore germination, n = 3, read-out: IC50, C. lagenarium.

As to `C=C1CC(c2cccc(OC(=O)c3cccc(Br)c3)c2)OC1=O` (centres unmarked) [Compound 6d, 4-[3-(3-Bromobenzoyloxy)phenyl]-2-methylenebutyrolactone], the melting point is 178.6 to 178.9 °C. The IC50 with C. lagenarium (setting [1]) is 8.17 µM. In addition, in the data set with C. lagenarium (setting [2]), the IC50 is 8.17 µM. For the same compound, in the data set on C. lagenarium (setting [3]), the IC50 is 8.17 µM. Moreover, the IC50 in the data set with C. lagenarium (setting [4]) was 8.17 µM. Besides, in the data set with C. lagenarium (setting [5]), the IC50 was 8.17 µM. The IC50 with HepG2 cell line turned out to be 20.9 µM. The IC50 in the data set with B. cinerea is 26 µM.
`C=C1CC(c2cccc(OC(=O)c3ccccc3)c2)OC1=O` (centres unmarked) [Compound 6f, 4-(3-Benzoyloxyphenyl)-2-methylenebutyrolactone] gave a melting point of 204.5 to 204.8 °C. In addition, the IC50 in the data set with C. lagenarium (setting [1]) is 73.1 µM. Besides, the IC50 with C. lagenarium (setting [2]) is 73.1 µM. In addition, the IC50 in the data set on C. lagenarium (setting [3]) was 73.1 µM. Besides, in the data set with C. lagenarium (setting [4]), the IC50 is 73.1 µM. Further, the IC50 in the data set with C. lagenarium (setting [5]) is 73.1 µM. Further, the IC50 with HepG2 cell line came out at 18.5 µM. Further, in the data set on B. cinerea, the IC50 was determined as 102 µM.
Compound `C=C1CC(c2cccc(OC(=O)c3ccccc3C)c2)OC1=O` (centres unmarked) [Compound 6g, 4-[3-(2-Methylbenzoyloxy)phenyl]-2-methylenebutyrolactone] came in with a melting point of 178.3 to 178.9 °C. The IC50 in the data set with C. lagenarium (setting [1]) is 159 µM. The IC50 with C. lagenarium (setting [2]) is 159 µM. Further, the IC50 in the data set with C. lagenarium (setting [3]) was 159 µM. For the same compound, the IC50 in the data set on C. lagenarium (setting [4]) came out at 159 µM. The IC50 in the data set on C. lagenarium (setting [5]) is 159 µM. This compound gave an IC50 with HepG2 cell line of 22 µM. The compound further displayed an IC50 in the data set with B. cinerea of 180 µM.
For the compound `C=C1CC(c2cccc(OC(=O)c3ccc(OC)cc3)c2)OC1=O` (centres unmarked) [Compound 6l, 4-[3-(4-Methoxybenzoyloxy)phenyl]-2-methylenebutyrolactone], the melting point is 182.6 to 183.3 °C. The IC50 in the data set on C. lagenarium (setting [1]) is 154 µM. In addition, in the data set with C. lagenarium (setting [2]), the IC50 was 154 µM. The IC50 in the data set on C. lagenarium (setting [3]) was 154 µM. In addition, the IC50 with C. lagenarium (setting [4]) turned out to be 154 µM. For the same compound, the IC50 with C. lagenarium (setting [5]) was 154 µM. This compound also showed an IC50 in the data set on HepG2 cell line of 58.6 µM. This compound gave an IC50 in the data set on B. cinerea of 179 µM.
